According to publication PMC5218480 (PLoS ONE, 2017):

System: MV-4-11 cells
Assay: Gene expression microarray analysis (Affymetrix PrimeView) and GSEA
Assay type: cell-based, human
Parameters: RFU PODN (11730768_x_at) / Fold change /veh PODN (11730768_x_at) / RFU LINC00158 (11744669_a_at) / Fold change /veh LINC00158 (11744669_a_at) / RFU DUSP10 (11751237_a_at) / Fold change /veh DUSP10 (11751237_a_at) / RFU ID3 (11757404_x_at) / Fold change /veh ID3 (11757404_x_at) / RFU PLEKHG5 (11737974_s_at) / Fold change /veh PLEKHG5 (11737974_s_at) / RFU LRRC4B (11730491_at) / Fold change /veh LRRC4B (11730491_at) / RFU GIMAP4 (11747438_a_at) / Fold change /veh GIMAP4 (11747438_a_at) / RFU KRT8 (11758183_x_at) / Fold change /veh KRT8 (11758183_x_at) / RFU CNN1 (11734310_a_at) / Fold change /veh CNN1 (11734310_a_at) / RFU VPS37D (11726825_at) / Fold change /veh VPS37D (11726825_at) / RFU C10orf10 (11716522_x_at) / Fold change /veh C10orf10 (11716522_x_at) / RFU KIR2DL2 /// KIR2DL4 /// KIR2DL5A /// KIR2DL5B /// KIR2DS1 /// KIR2DS2 /// KIR2DS3 /// KIR2DS4 /// KIR3DL3 /// KIR3DL3 /// KIR3DS1 (11738374_at) / Fold change /veh KIR2DL2 /// KIR2DL4 /// KIR2DL5A /// KIR2DL5B /// KIR2DS1 /// KIR2DS2 /// KIR2DS3 /// KIR2DS4 /// KIR3DL3 /// KIR3DL3 /// KIR3DS1 (11738374_at) / RFU C1QL1 (11718748_at) / Fold change /veh C1QL1 (11718748_at) / RFU TMPRSS4 (11747572_a_at) / Fold change /veh TMPRSS4 (11747572_a_at) / RFU HAMP (11756126_x_at) / Fold change /veh HAMP (11756126_x_at) / RFU RNFT2 (11725882_a_at) / Fold change /veh RNFT2 (11725882_a_at) / RFU NR4A2 (11747474_a_at) / Fold change /veh NR4A2 (11747474_a_at) / RFU ABCC12 (11746883_a_at) / Fold change /veh ABCC12 (11746883_a_at) / RFU TMEM136 (11760407_x_at) / Fold change /veh TMEM136 (11760407_x_at) / RFU CLDN22 /// WWC2 (11732394_at) / Fold change /veh CLDN22 /// WWC2 (11732394_at) / RFU HLA-DPB1 (11760878_x_at) / Fold change /veh HLA-DPB1 (11760878_x_at) / RFU SPINT1 (11716480_a_at) / Fold change /veh SPINT1 (11716480_a_at) / RFU GAP43 (11754022_s_at) / Fold change /veh GAP43 (11754022_s_at) / RFU A4GNT (11735810_at) / Fold change /veh A4GNT (11735810_at) / RFU PRB3 (11715151_x_at) / Fold change /veh PRB3 (11715151_x_at) / RFU TUBB4B (11761932_at) / Fold change /veh TUBB4B (11761932_at) / RFU CAPN14 (11732068_a_at) / Fold change /veh CAPN14 (11732068_a_at) / RFU TMCC2 (11721928_a_at) / Fold change /veh TMCC2 (11721928_a_at) / RFU IRGQ (11745062_a_at) / Fold change /veh IRGQ (11745062_a_at) / RFU FAM174B (11720279_a_at) / Fold change /veh FAM174B (11720279_a_at) / RFU TMPRSS4 (11748680_a_at) / Fold change /veh TMPRSS4 (11748680_a_at) / RFU FAM212B (11763350_a_at) / Fold change /veh FAM212B (11763350_a_at) / RFU PLEKHG5 (11743358_a_at) / Fold change /veh PLEKHG5 (11743358_a_at) / RFU ZSCAN30 (11745921_a_at) / Fold change /veh ZSCAN30 (11745921_a_at) / RFU CMKLR1 (11741424_a_at) / Fold change /veh CMKLR1 (11741424_a_at) / RFU LOC101060620 /// MAPK8IP1 (11723275_at) / Fold change /veh LOC101060620 /// MAPK8IP1 (11723275_at) / RFU SPTSSB (11747773_x_at) / Fold change /veh SPTSSB (11747773_x_at) / RFU PRSS12 (11739890_at) / Fold change /veh PRSS12 (11739890_at) / RFU BIN1 (11741810_x_at) / Fold change /veh BIN1 (11741810_x_at) / RFU WNT11 (11732464_a_at) / Fold change /veh WNT11 (11732464_a_at) / RFU C10orf10 (11716521_a_at) / Fold change /veh C10orf10 (11716521_a_at) / RFU C5orf56 (11738089_at) / Fold change /veh C5orf56 (11738089_at) / RFU CYB561 (11721691_x_at) / Fold change /veh CYB561 (11721691_x_at) / RFU ANKRD19P (11752326_a_at) / Fold change /veh ANKRD19P (11752326_a_at) / RFU OR2T12 /// OR2T33 /// OR2T8 (11738714_s_at) / Fold change /veh OR2T12 /// OR2T33 /// OR2T8 (11738714_s_at) / RFU VCAN (11748164_a_at) / Fold change /veh VCAN (11748164_a_at) / RFU JSRP1 (11732532_at) / Fold change /veh JSRP1 (11732532_at) / RFU KRTAP10-11 (11738290_x_at) / Fold change /veh KRTAP10-11 (11738290_x_at) / RFU MYO3A (11730013_a_at) / Fold change /veh MYO3A (11730013_a_at) / RFU EBF3 (11725865_a_at) / Fold change /veh EBF3 (11725865_a_at) / RFU CAMK2N1 (11719241_x_at) / Fold change /veh CAMK2N1 (11719241_x_at) / RFU C5orf56 (11738088_a_at) / Fold change /veh C5orf56 (11738088_a_at) / RFU OLFML3 (11715873_a_at) / Fold change /veh OLFML3 (11715873_a_at) / RFU LOC100653217 /// NTM (11731650_a_at) / Fold change /veh LOC100653217 /// NTM (11731650_a_at) / RFU MAPK11 (11762145_a_at) / Fold change /veh MAPK11 (11762145_a_at) / RFU FIZ1 (11724087_x_at) / Fold change /veh FIZ1 (11724087_x_at) / RFU OASL (11726364_x_at) / Fold change /veh OASL (11726364_x_at) / RFU SOX15 (11748057_x_at) / Fold change /veh SOX15 (11748057_x_at) / RFU CD79A (11719716_a_at) / Fold change /veh CD79A (11719716_a_at) / RFU HIST1H1D (11736915_at) / Fold change /veh HIST1H1D (11736915_at) / RFU CASKIN2 (11723855_a_at) / Fold change /veh CASKIN2 (11723855_a_at) / RFU LOC730098 (11760151_x_at) / Fold change /veh LOC730098 (11760151_x_at) / RFU OR4N2 (11742367_at) / Fold change /veh OR4N2 (11742367_at) / RFU PRRT2 (11749266_a_at) / Fold change /veh PRRT2 (11749266_a_at) / RFU SNX32 (11753110_a_at) / Fold change /veh SNX32 (11753110_a_at) / RFU CDHR5 (11726645_a_at) / Fold change /veh CDHR5 (11726645_a_at) / RFU RCAN1 (11760418_a_at) / Fold change /veh RCAN1 (11760418_a_at) / RFU FAM167A (11723789_a_at) / Fold change /veh FAM167A (11723789_a_at) / RFU FAM26E (11764081_at) / Fold change /veh FAM26E (11764081_at) / RFU ISYNA1 (11749810_s_at) / Fold change /veh ISYNA1 (11749810_s_at) / RFU ACY1 (11761880_at) / Fold change /veh ACY1 (11761880_at) / RFU 11764098_at / Fold change /veh 11764098_at / RFU SAMD14 (11745864_x_at) / Fold change /veh SAMD14 (11745864_x_at) / RFU NPB (11741838_a_at) / Fold change /veh NPB (11741838_a_at) / RFU TMPRSS6 (11731388_a_at) / Fold change /veh TMPRSS6 (11731388_a_at) / RFU KRTAP10-2 (11738614_at) / Fold change /veh KRTAP10-2 (11738614_at) / RFU ARHGAP8 /// PRR5-ARHGAP8 (11727945_x_at) / Fold change /veh ARHGAP8 /// PRR5-ARHGAP8 (11727945_x_at) / RFU KRTAP5-7 /// NADSYN1 (11734609_at) / Fold change /veh KRTAP5-7 /// NADSYN1 (11734609_at) / RFU RASL12 (11751679_a_at) / Fold change /veh RASL12 (11751679_a_at) / RFU CDKN2B (11736163_a_at) / Fold change /veh CDKN2B (11736163_a_at) / RFU PRF1 (11729649_at) / Fold change /veh PRF1 (11729649_at) / RFU, ZNF638 /// ZNF638-IT1 / Fold change vs veh, ZNF638 /// ZNF638-IT1 / RFU, PANK3 / Fold change vs veh, PANK3 / RFU, SH3YL1 / Fold change vs veh, SH3YL1 / RFU, ZEB2 / Fold change vs veh, ZEB2 / RFU, NRIP1 / Fold change vs veh, NRIP1 / RFU, PTTG1IP / Fold change vs veh, PTTG1IP / RFU, CAPN2 / Fold change vs veh, CAPN2 / RFU, MED14 / Fold change vs veh, MED14 / RFU, SNORA58 / Fold change vs veh, SNORA58 / RFU, C1orf63 / Fold change vs veh, C1orf63 / RFU, LRRFIP1 / Fold change vs veh, LRRFIP1 / RFU, NDUFAF7 / Fold change vs veh, NDUFAF7 / RFU, SLC12A2 / Fold change vs veh, SLC12A2 / RFU, IBTK / Fold change vs veh, IBTK / RFU, ESF1 / Fold change vs veh, ESF1 / Fold change vs veh, TMEM50B / RFU, TAOK1 / Fold change vs veh, TAOK1 / RFU, ACBD3 / Fold change vs veh, ACBD3 / RFU, TMA16 / Fold change vs veh, TMA16 / RFU, RWDD3 / Fold change vs veh, RWDD3 / RFU, BCAT1 / Fold change vs veh, BCAT1 / RFU, EDEM3 / Fold change vs veh, EDEM3 / RFU, TMEM33 / Fold change vs veh, TMEM33 / RFU, WDR75 / Fold change vs veh, WDR75 / RFU, AHCTF1 / Fold change vs veh, AHCTF1 / RFU, TFRC / Fold change vs veh, TFRC / RFU, ZDHHC17 / Fold change vs veh, ZDHHC17 / RFU, NOM1 / Fold change vs veh, NOM1 / RFU, ARL8B / Fold change vs veh, ARL8B / RFU, ZBTB11 / Fold change vs veh, ZBTB11 / RFU, TAMM41 / Fold change vs veh, TAMM41 / RFU, KIAA1704 /// LOC100996395 / Fold change vs veh, KIAA1704 /// LOC100996395 / RFU, ING1 / Fold change vs veh, ING1 / RFU, TRMT61B / Fold change vs veh, TRMT61B / RFU, FUBP3 / Fold change vs veh, FUBP3 / RFU, TP53 / Fold change vs veh, TP53 / RFU, TNKS2 / Fold change vs veh, TNKS2 / RFU, ZFP14 / Fold change vs veh, ZFP14 / RFU, ACTR2 / Fold change vs veh, ACTR2 / RFU, PPP3R1 / Fold change vs veh, PPP3R1 / RFU, PIK3R1 / Fold change vs veh, PIK3R1 / RFU, HNRNPA1 / Fold change vs veh, HNRNPA1 / RFU, RNF170 / Fold change vs veh, RNF170 / RFU, ZNF28 / Fold change vs veh, ZNF28 / RFU, RNGTT / Fold change vs veh, RNGTT / RFU, OGT / Fold change vs veh, OGT / RFU, BRD1 / Fold change vs veh, BRD1 / RFU, MARS / Fold change vs veh, MARS / RFU, ZNF655 / Fold change vs veh, ZNF655 / RFU, FAHD1 / Fold change vs veh, FAHD1 / RFU, BDP1 / Fold change vs veh, BDP1 / RFU, LRRCC1 / Fold change vs veh, LRRCC1 / RFU, ARID1A / Fold change vs veh, ARID1A / RFU, ZNF146 / Fold change vs veh, ZNF146 / RFU, ZNF330 / Fold change vs veh, ZNF330 / RFU, GPN3 / Fold change vs veh, GPN3 / RFU, C9orf123 / Fold change vs veh, C9orf123 / RFU, N4BP2L2 / Fold change vs veh, N4BP2L2 / RFU, ARFIP1 / Fold change vs veh, ARFIP1 / RFU, FAM179B / Fold change vs veh, FAM179B / RFU, BCL10 / Fold change vs veh, BCL10 / RFU, UHRF1BP1L / Fold change vs veh, UHRF1BP1L / RFU, BET1 / Fold change vs veh, BET1 / RFU, CNOT2 / Fold change vs veh, CNOT2 / RFU, ZNF268 / Fold change vs veh, ZNF268 / Fold change vs veh, ZNF507 / RFU, DGCR2 / Fold change vs veh, DGCR2 / RFU, WDSUB1 / Fold change vs veh, WDSUB1 / Fold change vs veh, HSP90B1 /// MIR3652 / RFU, ADSS / Fold change vs veh, ADSS / RFU, GK / Fold change vs veh, GK / RFU, ZNF148 / Fold change vs veh, ZNF148 / RFU, TAF9 / Fold change vs veh, TAF9 / RFU, SLC1A5 / Fold change vs veh, SLC1A5 / RFU, SLMO2 / Fold change vs veh, SLMO2 / RFU, ABCC4 / Fold change vs veh, ABCC4 / RFU, LOC101060439 /// RAP1B / Fold change vs veh, LOC101060439 /// RAP1B / RFU, RFX7 / Fold change vs veh, RFX7 / RFU, GTPBP10 / Fold change vs veh, GTPBP10 / RFU, CNEP1R1 / Fold change vs veh, CNEP1R1 / RFU, BIVM-ERCC5 /// ERCC5 / Fold change vs veh, BIVM-ERCC5 /// ERCC5 / RFU, ILF3 / Fold change vs veh, ILF3 / RFU 11762660_at / Fold change /veh 11762660_at / RFU VCAN (11757783_s_at) / Fold change /veh VCAN (11757783_s_at) / RFU DDX43 (11728927_at) / Fold change /veh DDX43 (11728927_at) / RFU KRT8 (11758188_x_at) / Fold change /veh KRT8 (11758188_x_at) / RFU NKD1 (11759106_at) / Fold change /veh NKD1 (11759106_at) / RFU SRD5A1 (11742802_a_at) / Fold change /veh SRD5A1 (11742802_a_at) / RFU TPSAB1 /// TPSB2 (11721975_s_at) / Fold change /veh TPSAB1 /// TPSB2 (11721975_s_at) / RFU GSTM3 (11746129_a_at) / Fold change /veh GSTM3 (11746129_a_at) / RFU IL23R (11737362_x_at) / Fold change /veh IL23R (11737362_x_at) / RFU TMEM51 (11727254_a_at) / Fold change /veh TMEM51 (11727254_a_at) / RFU PIWIL2 (11732686_x_at) / Fold change /veh PIWIL2 (11732686_x_at) / RFU ORM1 (11744905_x_at) / Fold change /veh ORM1 (11744905_x_at) / RFU CCDC152 (11743942_at) / Fold change /veh CCDC152 (11743942_at) / RFU ECM1 (11717891_a_at) / Fold change /veh ECM1 (11717891_a_at) / RFU IL23R (11748794_a_at) / Fold change /veh IL23R (11748794_a_at) / RFU TNFAIP8L3 (11732012_x_at) / Fold change /veh TNFAIP8L3 (11732012_x_at) / RFU MBOAT4 (11741988_at) / Fold change /veh MBOAT4 (11741988_at) / RFU 11764193_at / Fold change /veh 11764193_at / RFU TMEM53 (11763286_at) / Fold change /veh TMEM53 (11763286_at) / RFU MAGEB2 (11727129_at) / Fold change /veh MAGEB2 (11727129_at) / RFU TMEM200A (11744735_a_at) / Fold change /veh TMEM200A (11744735_a_at) / RFU CCDC152 (11751479_a_at) / Fold change /veh CCDC152 (11751479_a_at) / RFU FAM211A (11726209_a_at) / Fold change /veh FAM211A (11726209_a_at) / RFU RGS16 (11746705_a_at) / Fold change /veh RGS16 (11746705_a_at) / RFU VCAN (11755009_s_at) / Fold change /veh VCAN (11755009_s_at) / RFU RHOB (11743442_s_at) / Fold change /veh RHOB (11743442_s_at) / RFU RGS16 (11720943_a_at) / Fold change /veh RGS16 (11720943_a_at) / RFU RGS16 (11720944_at) / Fold change /veh RGS16 (11720944_at) / RFU, VPS4B / Fold change vs veh, VPS4B / RFU, CREB1 / Fold change vs veh, CREB1 / RFU, DNAJC13 / Fold change vs veh, DNAJC13 / RFU, GNAQ / Fold change vs veh, GNAQ / RFU, CDK5R1 / Fold change vs veh, CDK5R1 / RFU, ZRANB3 / Fold change vs veh, ZRANB3 / RFU, CUL4A / Fold change vs veh, CUL4A / RFU, CCNY / Fold change vs veh, CCNY / RFU, UFL1 / Fold change vs veh, UFL1 / RFU, COG3 / Fold change vs veh, COG3 / RFU, DIAPH2 / Fold change vs veh, DIAPH2 / RFU, SKA2 / Fold change vs veh, SKA2 / RFU, AFF3 / Fold change vs veh, AFF3 / RFU, LMF1 / Fold change vs veh, LMF1 / RFU, IPO11 / Fold change vs veh, IPO11 / RFU, DFFB / Fold change vs veh, DFFB / RFU, FOXP1 / Fold change vs veh, FOXP1 / RFU, CARD8 / Fold change vs veh, CARD8 / RFU, STRN3 / Fold change vs veh, STRN3 / RFU, ADK / Fold change vs veh, ADK / RFU, RASSF2 / Fold change vs veh, RASSF2 / RFU, WIPF1 / Fold change vs veh, WIPF1 / RFU, LARP1B / Fold change vs veh, LARP1B / RFU, RASA1 / Fold change vs veh, RASA1 / RFU, RB1 / Fold change vs veh, RB1 / RFU, PPFIA1 / Fold change vs veh, PPFIA1 / RFU, MAT2A / Fold change vs veh, MAT2A / RFU, CCT5 / Fold change vs veh, CCT5 / RFU, WDR92 / Fold change vs veh, WDR92 / RFU, CUX1 / Fold change vs veh, CUX1 / RFU, TTC7A / Fold change vs veh, TTC7A / RFU, TMEM135 / Fold change vs veh, TMEM135 / RFU, DEPTOR / Fold change vs veh, DEPTOR / RFU, CPM / Fold change vs veh, CPM / RFU, DNAJB6 / Fold change vs veh, DNAJB6 / RFU, CACNA2D3 / Fold change vs veh, CACNA2D3 / RFU, DTX4 / Fold change vs veh, DTX4 / RFU, TFCP2 / Fold change vs veh, TFCP2 / RFU, GMCL1 /// GMCL1P1 / Fold change vs veh, GMCL1 /// GMCL1P1 / RFU, AEBP2 / Fold change vs veh, AEBP2 / RFU, SNHG1 /// SNORD22 /// SNORD25 /// SNORD26 /// SNORD27 /// SNORD28 /// SNORD29 /// SNORD31 / Fold change vs veh, SNHG1 /// SNORD22 /// SNORD25 /// SNORD26 /// SNORD27 /// SNORD28 /// SNORD29 /// SNORD31 / Fold change (Aza/veh), C12orf56 (ProbeSet 11735607_a_at) / Fold change (ACY-1035/veh), C12orf56 (ProbeSet 11735607_a_at) / Fold change (Aza/veh), FGFR1OP (ProbeSet 11751329_s_at) / Fold change (ACY-1035/veh), FGFR1OP (ProbeSet 11751329_s_at) / Fold change (Aza/veh), VPS36 (ProbeSet 11739960_a_at) / Fold change (ACY-1035/veh), VPS36 (ProbeSet 11739960_a_at) / RFU SYPL1 (11715823_x_at) / Fold change /veh SYPL1 (11715823_x_at) / RFU IGFBP7 (11715501_s_at) / Fold change /veh IGFBP7 (11715501_s_at) / RFU REEP3 (11722064_at) / Fold change /veh REEP3 (11722064_at) / RFU IGLL1 (11728026_x_at) / Fold change /veh IGLL1 (11728026_x_at): dose or concentration left out as unconfirmed
Settings: MV-4-11 cells, 48 hours

With `Nc1ccc(-c2cccs2)cc1NC(=O)c1ccc2c(c1)cc(C1CC1)n2CCN1CCOCC1` [ACY-1035] the “Fold change /veh RASL12 (11751679_a_at)” value was 1.18.
